Experimental data taken from PubChem BioAssay AID318 (DTP/NCI, 2004).
Values joined by “and” are separate entries in the source; they are usually repeats but may differ in a detail not shown here. Equal values may be shown once. Inconclusive results and toxic doses are left out. How the source made its calls: active means survival T/C of 150% or more; inactive means T/C below 125% in these data. Starred links: 1 amine or outer side, 2 acyl side, 3 side chain; linkers in the order of their positions; H or OH if unused. Positions of bridges follow the written chain, without caps; N, C: chain ends. Non-standard residues stand in square brackets, D forms with d. Residues, ends and D or L forms follow the SMILES beside them. Chains are numbered I, II in the order given. Actinocin(9to1) = Cc1c2oc3c(C)ccc(C(=O)[*:1])c3nc-2c(C(=O)[*:2])c(N)c1=O; NMeV = CN[CH](C(=O)O)C(C)C; Aze = O=C(O)[CH]1CCN1; Sar = CNCC(=O)O

Test system: BDF1 mice, P815 leukemia ip, survival T/C
Assay: NCI In Vivo Anticancer Drug Screen. Data for tumor model P815 Mast Cell Leukemia (Ascitic) (intraperitoneal) in B6D2F1 (BDF1) mice
Settings: higher = longer survival
Description: The antitumor activity of compounds was measured in mice bearing transplantable tumors. Survival or tumor size were measured and the results are expressed as the measurement made in the treated group (T) divided by the measurement made in the vehicle treated control group (C). The tumor model used in this assay is P815 Mast Cell Leukemia (Ascitic) (intraperitoneal) in B6D2F1 (BDF1) mice

[1] = endpoint: survival time, mean or median, dose: 18.0 mg/kg/injection, schedule: Q01DX010 (ip), vehicle: saline
[2] = endpoint: survival time, mean or median, dose: 27.0 mg/kg/injection, schedule: Q01DX010 (ip), vehicle: saline

Measured: T/C

O=C(Nc1ccc(C2=NCCN2)cc1)c1cc(Cl)cc(C(=O)Nc2ccc(C3=NCCN3)cc2)c1
inactive: endpoint: survival time, mean or median, dose: 140.0 mg/kg/injection, schedule: Q01DX010 (ip), vehicle: saline 91 % of control | endpoint: survival time, mean or median, dose: 210.0 mg/kg/injection, schedule: Q01DX010 (ip), vehicle: saline 95 % of control | endpoint: survival time, mean or median, dose: 315.0 mg/kg/injection, schedule: Q01DX010 (ip), vehicle: saline 86 % of control | endpoint: survival time, mean or median, dose: 473.0 mg/kg/injection, schedule: Q01DX010 (ip), vehicle: saline 91 % of control

O=C(Nc1ccc(C2=NCCN2)cc1)c1ccc(NC(=O)c2ccc(C3=NCCN3)cc2)cc1
inactive: [1] 112 % of control | [2] 116 % of control

[I][Hg][CH2]C1COC([CH2][Hg][I])CO1 (stereo not given)
inactive: endpoint: survival time, mean or median, dose: 3.13 mg/kg/injection, schedule: Q01DX010 (ip), vehicle: saline 90 % of control | endpoint: survival time, mean or median, dose: 6.25 mg/kg/injection, schedule: Q01DX010 (ip), vehicle: saline 90 % of control | endpoint: survival time, mean or median, dose: 12.5 mg/kg/injection, schedule: Q01DX010 (ip), vehicle: saline 95 % of control | endpoint: survival time, mean or median, dose: 25.0 mg/kg/injection, schedule: Q01DX010 (ip), vehicle: saline 90 % of control

N#CCSc1ncnc2nc[nH]c12
inactive: endpoint: survival time, mean or median, dose: 7.5 mg/kg/injection, schedule: Q01DX010 (ip), vehicle: saline 100 % of control | endpoint: survival time, mean or median, dose: 15.0 mg/kg/injection, schedule: Q01DX010 (ip), vehicle: saline 100 % of control and 111 % of control | endpoint: survival time, mean or median, dose: 30.0 mg/kg/injection, schedule: Q01DX010 (ip), vehicle: saline 100 % of control and 111 % of control | endpoint: survival time, mean or median, dose: 60.0 mg/kg/injection, schedule: Q01DX010 (ip), vehicle: saline 94 % of control and 122 % of control

CC(Cl)CN(Cc1cc(O)c(CN(CC(C)Cl)CC(C)Cl)cc1O)CC(C)Cl (stereo not given)
inactive: endpoint: survival time, mean or median, dose: 62.5 mg/kg/injection, schedule: Q01DX015 (ip), vehicle: carboxymethylcellulose (CMC) 114 % of control | endpoint: survival time, mean or median, dose: 125.0 mg/kg/injection, schedule: Q01DX015 (ip), vehicle: carboxymethylcellulose (CMC) 99 % of control | endpoint: survival time, mean or median, dose: 250.0 mg/kg/injection, schedule: Q01DX015 (ip), vehicle: carboxymethylcellulose (CMC) 122 % of control | endpoint: survival time, mean or median, dose: 500.0 mg/kg/injection, schedule: Q01DX015 (ip), vehicle: carboxymethylcellulose (CMC) 124 % of control

CC1CN=C(c2ccc(NC(=O)c3cccc(C(=O)Nc4ccc(C5=NCC(C)N5)cc4)c3)cc2)N1 (stereo not given)
inactive: endpoint: survival time, mean or median, dose: 12.0 mg/kg/injection, schedule: Q01DX010 (ip), vehicle: saline 112 % of control | [1] 104 % of control | [2] 112 % of control

CN(C)c1nc(N(C)C)nc(N(C)C)n1
inactive: endpoint: survival time, mean or median, dose: 18.8 mg/kg/injection, schedule: Q01DX010 (ip), vehicle: saline 94 % of control and 102 % of control | endpoint: survival time, mean or median, dose: 37.5 mg/kg/injection, schedule: Q01DX010 (ip), vehicle: saline 94 % of control | endpoint: survival time, mean or median, dose: 75.0 mg/kg/injection, schedule: Q01DX010 (ip), vehicle: saline 97 % of control and 102 % of control | endpoint: survival time, mean or median, dose: 150.0 mg/kg/injection, schedule: Q01DX010 (ip), vehicle: saline 102 % of control and 107 % of control

Cc1c2oc3c(C)ccc(C(=O)NC4C(=O)NC(C(C)C)C(=O)N5CCC5C(=O)N(C)CC(=O)N(C)C(C(C)C)C(=O)OC4C)c3nc-2c(C(=O)NC2C(=O)NC(C(C)C)C(=O)N3CCC3C(=O)N(C)CC(=O)N(C)C(C(C)C)C(=O)OC2C)c(N)c1=O (stereo not given) (I: TV[Aze][Sar][NMeV] / II: TV[Aze][Sar][NMeV]; ester I:1-I:C, II:1-II:C; linker I:N-II:N via Actinocin(9to1); configuration not given here)
inactive: endpoint: median survival time, dose: 270.0 micrograms/kg/injection, schedule: Q04DX003 (ip), vehicle: saline + alcohol 118 % of control | endpoint: median survival time, dose: 450.0 micrograms/kg/injection, schedule: Q01DX001 (ip), vehicle: saline + alcohol 118 % of control | endpoint: median survival time, dose: 450.0 micrograms/kg/injection, schedule: Q04DX003 (ip), vehicle: saline + alcohol 113 % of control | endpoint: median survival time, dose: 750.0 micrograms/kg/injection, schedule: Q01DX001 (ip), vehicle: saline + alcohol 121 % of control | endpoint: median survival time, dose: 750.0 micrograms/kg/injection, schedule: Q04DX003 (ip), vehicle: saline + alcohol 97 % of control | endpoint: median survival time, dose: 1250.0 micrograms/kg/injection, schedule: Q01DX001 (ip), vehicle: saline + alcohol 105 % of control | endpoint: median survival time, dose: 1250.0 micrograms/kg/injection, schedule: Q04DX003 (ip), vehicle: saline + alcohol 92 % of control

O=C(Nc1ccc(C2=NCCN2)cc1)c1cc(C(=O)Nc2ccc(C3=NCCN3)cc2)cc([N+](=O)[O-])c1
inactive: endpoint: survival time, mean or median, dose: 167.0 mg/kg/injection, schedule: Q01DX010 (ip), vehicle: saline 91 % of control | endpoint: survival time, mean or median, dose: 250.0 mg/kg/injection, schedule: Q01DX010 (ip), vehicle: saline 95 % of control | endpoint: survival time, mean or median, dose: 375.0 mg/kg/injection, schedule: Q01DX010 (ip), vehicle: saline 91 % of control
